In US20220144839A1, “INDOLE AHR INHIBITORS AND USES THEREOF” (Ikena Oncology, Inc., priority 2018, published 2022):

Target: T1, AHR (UniProt P35869)
T1 sequence (P35869 1-848): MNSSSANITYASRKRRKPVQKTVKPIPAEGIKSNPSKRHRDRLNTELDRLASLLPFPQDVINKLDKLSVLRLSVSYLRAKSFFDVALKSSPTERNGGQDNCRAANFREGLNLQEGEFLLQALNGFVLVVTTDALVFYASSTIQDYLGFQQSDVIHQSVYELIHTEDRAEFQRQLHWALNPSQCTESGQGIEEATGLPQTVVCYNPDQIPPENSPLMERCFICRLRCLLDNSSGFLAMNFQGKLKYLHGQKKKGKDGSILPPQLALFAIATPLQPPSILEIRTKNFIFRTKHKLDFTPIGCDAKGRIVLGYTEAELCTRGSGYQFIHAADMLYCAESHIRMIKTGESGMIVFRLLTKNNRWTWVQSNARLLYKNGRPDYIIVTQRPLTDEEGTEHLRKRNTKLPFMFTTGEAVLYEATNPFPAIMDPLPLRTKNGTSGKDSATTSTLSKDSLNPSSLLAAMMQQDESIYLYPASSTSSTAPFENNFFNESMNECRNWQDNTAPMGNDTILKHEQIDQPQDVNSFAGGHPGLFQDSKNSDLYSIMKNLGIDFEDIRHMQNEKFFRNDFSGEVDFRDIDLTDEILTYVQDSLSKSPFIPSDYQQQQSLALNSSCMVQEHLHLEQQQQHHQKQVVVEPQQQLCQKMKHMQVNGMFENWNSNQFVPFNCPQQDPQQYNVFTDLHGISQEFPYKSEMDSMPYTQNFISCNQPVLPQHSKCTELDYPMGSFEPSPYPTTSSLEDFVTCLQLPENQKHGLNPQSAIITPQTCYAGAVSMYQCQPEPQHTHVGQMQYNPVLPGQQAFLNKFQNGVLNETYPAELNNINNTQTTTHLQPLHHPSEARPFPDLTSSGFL
Assay: DRE-Luciferase Reporter Assay (Alternate Method), Example 1B
Type: cell-based
Details: concentration which inhibits half of the luciferase activity induced by AHR activating ligand; DRE-luciferase reporter cell line
Procedure, shortened: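 Murine (Hepa1-6, Hepa-1c1c7) or human (HepG2) cells carrying a stable or transient DRE-luciferase reporter, stimulated with an AHR agonist (e.g. TCDD, kynurenine, ITE, BNF, FICZ) plus compound at plating or after overnight culture at 37 °C. Luciferase read after 4, 15 or 24 h; IC50 as concentration halving agonist-only signal relative to no-ligand baseline.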

Row | IC50 [nM] | SMILES
1 | < 500 | C[C@@H](N)c1cnn2c(N[C@@H]3CCc4[nH]c5ccccc5c4C3)nc(-c3cncc(F)c3)nc12 [Compound I-32b, (3R)—N-[8-[(1R)-1-aminoethyl]-2-(5-fluoro-3-pyridyl)pyrazolo[1,5-a][1,3,5]triazin-4-yl]-2,3,4,9-tetrahydro-1H-carbazol-3-amine]
2 | > 1500 | CC(C)c1cnn2c(N[C@H]3CC[C@H](O)CC3)nc(-c3cncc(F)c3)nc12 [Compound I-44a, 4-[[2-(5-Fluoro-3-pyridyl)-8-isopropyl-pyrazolo[1,5-a][1,3,5]triazin-4-yl]amino]cyclohexanol]
3 | < 500 | CC(C)c1cnn2c(NCCc3cccnc3N)nc(-c3cncc(F)c3)nc12 [Compound I-58, N-[2-(2-Amino-3-pyridyl)ethyl]-2-(5-fluoro-3-pyridyl)-8-isopropyl-pyrazolo[1,5-a][1,3,5]triazin-4-amine]
4 | < 500 | C[C@H](O)c1cnc2c(N[C@@H]3CCc4[nH]c5ccccc5c4C3)nc(-c3cncc(F)c3)nn12 [Compound I-42a, (1S)-1-[2-(5-Fluoro-3-pyridyl)-4-[[(3R)-2,3,4,9-tetrahydro-1H-carbazol-3-yl]amino]imidazo[2,1-f][1,2,4]triazin-7-yl]ethanol]
5 | < 500 | CC(C)c1cnn2c(N[C@@H]3CNc4ncncc4C3)nc(-c3cncc(F)c3)nc12 [Compound I-60b, (6S)—N-[2-(5-fluoro-3-pyridyl)-8-isopropyl-pyrazolo[1,5-a][1,3,5]triazin-4-yl]-5,6,7,8-tetrahydropyrido[2,3-d]pyrimidin-6-amine]
6 | > 1500 | CC(C)c1cnn2c(N[C@H]3CCc4[nH]c5ccc(O)cc5c4C3)nc(-c3cncc(F)c3)nc12 [Compound I-34a, (6S)-6-[[2-(5-Fluoro-3-pyridyl)-8-isopropyl-pyrazolo[1,5-a][1,3,5]triazin-4-yl]amino]-6,7,8,9-tetrahydro-5H-carbazol-3-ol]
7 | > 1500 | CC(C)c1cnn2c(N[C@H]3CCc4[nH]c5cc(O)ccc5c4C3)nc(-c3cncc(F)c3)nc12 [Compound I-27b, (6S)-6-[[2-(5-Fluoro-3-pyridyl)-8-isopropyl-pyrazolo[1,5-a][1,3,5]triazin-4-yl]amino]-6,7,8,9-tetrahydro-5H-carbazol-2-ol]
8 | > 1500 | CC(C)c1cnn2c(N[C@@H]3CCc4[nH]c5ccccc5c4C3)nc(-c3ccc(N4CCOCC4)nc3)nc12 [Compound I-2, (3R)—N-[8-Isopropyl-2-(6-morpholino-3-pyridyl)pyrazolo[1,5-a][1,3,5]triazin-4-yl]-2,3,4,9-tetrahydro-1H-carbazol-3-amine]

Second part, the molecule before the results:

Row | SMILES | IC50 [nM]
9 | CC(C)c1cnn2c(N[C@@H]3CCc4[nH]c5c(O)cccc5c4C3)nc(-c3cncc(F)c3)nc12 [Compound I-24a, (6R)-6-[[2-(5-fluoro-3-pyridyl)-8-isopropyl-pyrazolo[1,5-a][1,3,5]triazin-4-yl]amino]-6,7,8,9-tetrahydro-5H-carbazol-1-ol] | > 1500
10 | COc1ccnc2c(N[C@@H]3CCc4[nH]c5ccccc5c4C3)nc(-c3cncc(F)c3)nc12 [Compound I-23, (3R)—N-[2-(5-fluoro-3-pyridyl)-8-methoxy-pyrido[3,2-d]pyrimidin-4-yl]-2,3,4,9-tetrahydro-1H-carbazol-3-amine] | < 500
11 | CC(C)c1cnn2c(N[C@@H]3CCc4[nH]c(=O)ccc4C3)nc(-c3cncc(F)c3)nc12 [Compound I-36a, (R)-6-((2-(5-Fluoropyridin-3-yl)-8-isopropylpyrazolo[1,5-a][1,3,5]triazin-4-yl)amino)-5,6,7,8-tetrahydroquinolin-2(1H)-one] | > 1500
12 | CC(C)c1cnn2c(N[C@@H]3CCc4[nH]c5ccccc5c4C3)nc(-c3cnsc3)nc12 [Compound I-53, (3R)—N-(8-Isopropyl-2-isothiazol-4-yl-pyrazolo[1,5-a][1,3,5]triazin-4-yl)-2,3,4,9-tetrahydro-1H-carbazol-3-amine] | 500 to 1000
13 | CC(C)c1cnn2c(N[C@@H]3CCc4[nH]c5ccccc5c4C3)nc(-c3ccn(C)c(=O)c3)nc12 [Compound I-1, 4-[8-Isopropyl-4-[[(3R)-2,3,4,9-tetrahydro-1H-carbazol-3-yl]amino]pyrazolo[1,5-a][1,3,5]triazin-2-yl]-1-methyl-pyridin-2-one] | > 1500
14 | C[C@H](NC(=O)N1CCOCC1)c1cnn2c(N[C@@H]3CCc4[nH]c5ccccc5c4C3)nc(-c3cncc(F)c3)nc12 [Compound I-56a, N-[(1S)-1-[2-(5-Fluoro-3-pyridyl)-4-[[(3R)-2,3,4,9-tetrahydro-1H-carbazol-3-yl]amino]pyrazolo[1,5-a][1,3,5]triazin-8-yl]ethyl]morpholine-4-carboxamide] | < 500
15 | CN1CCN(c2cnn3c(N[C@@H]4CCc5[nH]c6ccccc6c5C4)nc(-c4cncc(F)c4)nc23)CC1 [Compound I-52, (3R)—N-[2-(5-Fluoro-3-pyridyl)-8-(4-methylpiperazin-1-yl)pyrazolo[1,5-a][1,3,5]triazin-4-yl]-2,3,4,9-tetrahydro-1H-carbazol-3-amine] | 500 to 1000
16 | CC(C)c1cnn2c(N[C@@H]3CCc4[nH]c5ccccc5c4C3)nc(-n3cnc4ccccc43)nc12 [Compound I-12, (3R)—N-[2-(Benzimidazol-1-yl)-8-isopropyl-pyrazolo[1,5-a][1,3,5]triazin-4-yl]-2,3,4,9-tetrahydro-1H-carbazol-3-amine] | 1000 to 1500
17 | CC(C)c1cnn2c(N[C@H]3CCc4[nH]ncc4C3)nc(-c3cncc(F)c3)nc12 [Compound I-7b, 2-(5-fluoro-3-pyridyl)-8-isopropyl-N-[(5S)-4,5,6,7-tetrahydro-1H-indazol-5-yl]pyrazolo[1,5-a][1,3,5]triazin-4-amine] | 1000 to 1500
18 | CC(C)c1cnn2c(N[C@H]3CCc4[nH]c5cccnc5c4C3)nc(-c3cncc(F)c3)nc12 [Compound I-8a, (8S)—N-[2-(5-Fluoro-3-pyridyl)-8-isopropyl-pyrazolo[1,5-a][1,3,5]triazin-4-yl]-6,7,8,9-tetrahydro-5H-pyrido[3,2-b]indol-8-amine] | 1000 to 1500
19 | CC(C)c1cnn2c(N[C@@H]3Cc4[nH]cnc4NC3=O)nc(-c3cncc(F)c3)nc12 [Compound I-62b, (6R)-6-[[2-(5-fluoro-3-pyridyl)-8-isopropyl-pyrazolo[1,5-a][1,3,5]triazin-4-yl]amino]-1,4,6,7-tetrahydroimidazo [4,5-b]pyridin-5-one] | > 1500
20 | C[C@@H](NCC1CC1)c1cnn2c(N[C@@H]3CCc4[nH]c5ccccc5c4C3)nc(-c3cncc(F)c3)nc12 [Compound I-20b, (3R)—N-[8-[(1R)-1-(Cyclopropylmethylamino)ethyl]-2-(5-fluoro-3-pyridyl)pyrazolo[1,5-a][1,3,5]triazin-4-yl]-2,3,4,9-tetrahydro-1H-carbazol-3-amine] | < 500
21 | CC(C)c1cnn2c(N[C@H]3Cc4cncnc4NC3=O)nc(-c3cncc(F)c3)nc12 [Compound I-55a] | > 1500
22 | CC(C)c1cnn2c(N[C@@H]3CCc4[nH]c5ccc(O)cc5c4C3)nc(-c3cncc(F)c3)nc12 [Compound I-34b, (6R)-6-[[2-(5-Fluoro-3-pyridyl)-8-isopropyl-pyrazolo[1,5-a][1,3,5]triazin-4-yl]amino]-6,7,8,9-tetrahydro-5H-carbazol-3-ol] | > 1500
